Measured values from ChEMBL document CHEMBL5352398 (Eur J Med Chem, 2022).

Legend:
[1] = Toxicity in Kunming mouse assessed as steatosis in liver at 50 mg/kg, po and measured after 14 days by HE staining based microscopy; assay type: organism-based; conditions: in vivo, 336 h, time 14 day
[2] = Toxicity in Kunming mouse assessed as appearance of normal tubular structure in kidney at 50 mg/kg, po administered and measured after 14 days by HE staining; assay type: organism-based; conditions: in vivo, 336 h, time 14 day
[3] = Hepatotoxicity in Kunming mouse assessed as reduction in GSH level in serum at 50 mg/kg, ip and incubated for 1 hr (reference value: 41.68 uM); assay type: toxicity, organism-based; conditions: in vivo
[4] = Renal toxicity in Kunming mouse assessed as effect on creatinine level at 50 mg/kg,po for 14 days; assay type: organism-based; conditions: in vivo, 336 h, time 14 day
[5] = target: T1, Solute carrier family 2, facilitated glucose transporter member 9 (Mus musculus, UniProt Q3T9X0); test: Inhibition of mouse GLUT9 transfected in human HEK293 cells assessed as inhibition of uric acid induced current by cell patch-clamp assay; assay type: cell-based
T1 sequence (Q3T9X0 whole entry): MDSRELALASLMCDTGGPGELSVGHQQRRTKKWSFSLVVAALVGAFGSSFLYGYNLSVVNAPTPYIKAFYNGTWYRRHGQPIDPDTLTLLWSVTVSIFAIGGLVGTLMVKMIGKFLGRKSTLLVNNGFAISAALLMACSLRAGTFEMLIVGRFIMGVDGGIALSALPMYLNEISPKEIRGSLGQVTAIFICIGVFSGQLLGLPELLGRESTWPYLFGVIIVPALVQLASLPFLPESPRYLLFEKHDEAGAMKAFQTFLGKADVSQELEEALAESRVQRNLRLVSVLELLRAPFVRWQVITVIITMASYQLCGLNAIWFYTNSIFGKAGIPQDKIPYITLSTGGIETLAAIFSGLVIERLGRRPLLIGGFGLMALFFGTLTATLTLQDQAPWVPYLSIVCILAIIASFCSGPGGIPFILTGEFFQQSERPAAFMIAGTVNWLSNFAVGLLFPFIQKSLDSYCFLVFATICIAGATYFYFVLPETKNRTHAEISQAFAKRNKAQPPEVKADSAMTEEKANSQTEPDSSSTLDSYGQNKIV

[6] = Toxicity in Kunming mouse assessed as irregular cell arrangements at 50 mg/kg, po and measured after 14 days by HE staining based microscopy; assay type: organism-based; conditions: in vivo, 336 h, time 14 day
[7] = Renal toxicity in Kunming mouse assessed as effect on BUN level at 50 mg/kg,po for 14 days; assay type: organism-based; conditions: in vivo, 336 h, time 14 day
[8] = Hepatotoxicity in Kunming mouse assessed as increase in ALT level in serum at 50 mg/kg,po for 14 days in presence of BSO; assay type: toxicity, organism-based; conditions: in vivo, 336 h, time 14 day
[9] = Subacute toxicity in Kunming mouse assessed as anorexia at 50 mg/kg,po for 14 days; assay type: organism-based; conditions: in vivo, 336 h, time 14 day
[10] = Half life in Sprague-Dawley rat at 5 mg/kg, iv and measured upto 24 hrs by LC-MS/MS analysis; assay type: ADME, organism-based; conditions: in vivo
[11] = target: T2, Broad substrate specificity ATP-binding cassette transporter ABCG2 (Homo sapiens, UniProt Q9UNQ0); test: Inhibition of ABCG2 (unknown origin) transfected in HEK293 cell membrane vesicle assessed as inhibition of 14C-uric acid uptake incubated for 15 mins in presence of ATP by liquid scintillation counter analysis; assay type: cell membranes
T2 sequence (Q9UNQ0 whole entry): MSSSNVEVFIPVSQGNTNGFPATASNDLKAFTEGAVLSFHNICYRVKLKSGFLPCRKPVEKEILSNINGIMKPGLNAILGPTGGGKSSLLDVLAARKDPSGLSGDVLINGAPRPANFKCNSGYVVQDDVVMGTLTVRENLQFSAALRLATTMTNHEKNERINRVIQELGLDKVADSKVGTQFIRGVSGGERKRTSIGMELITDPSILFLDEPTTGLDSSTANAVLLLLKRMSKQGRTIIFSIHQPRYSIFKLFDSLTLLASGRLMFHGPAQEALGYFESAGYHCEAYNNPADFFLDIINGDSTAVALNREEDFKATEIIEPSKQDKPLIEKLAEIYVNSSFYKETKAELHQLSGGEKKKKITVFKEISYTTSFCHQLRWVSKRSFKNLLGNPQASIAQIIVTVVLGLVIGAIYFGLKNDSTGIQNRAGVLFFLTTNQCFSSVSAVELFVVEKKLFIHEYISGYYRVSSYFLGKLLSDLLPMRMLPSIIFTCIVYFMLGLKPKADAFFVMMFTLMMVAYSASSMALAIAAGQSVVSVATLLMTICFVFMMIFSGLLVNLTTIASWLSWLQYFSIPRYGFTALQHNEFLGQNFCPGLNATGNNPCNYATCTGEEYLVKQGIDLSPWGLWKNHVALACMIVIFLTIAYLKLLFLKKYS

[12] = Subacute toxicity in Kunming mouse assessed as animal death at 50 mg/kg,po for 14 days; assay type: organism-based; conditions: in vivo, 336 h, time 14 day
[13] = MRT (0 to infinity) in Sprague-Dawley rat at 5 mg/kg, po and measured upto 24 hrs by LC-MS/MS analysis; assay type: ADME, organism-based; conditions: in vivo
[14] = Subacute toxicity in Kunming mouse assessed as ruffled fur at 50 mg/kg,po for 14 days; assay type: organism-based; conditions: in vivo, 336 h, time 14 day

With `CCc1oc2ccccc2c1C(=O)c1cc(Br)c(O)c(Br)c1` [BENZBROMARONE] the Activity [1] was “Non-Toxic”, the Activity [2] was “Non-Toxic” and the Activity [3] was 10.72 µM. For the same molecule, the Activity [4] was “Non-Toxic”, the IC50 [5] was greater than 20000 nM and the Activity [6] was “Non-Toxic”. The Activity [7] was “Non-Toxic”, the Activity [8] was “Non-Toxic” and the Activity [9] was “Non-Toxic”. The half-life [10] was 3.03 h, the IC50 [11] was 340 nM and the Activity [12] was “Non-Toxic”. The MRT inf [13] was 3.48 h and the Activity [14] was “Non-Toxic”.
